Assay results from patent US12097213B2, “Sequential treatment of cancers using 6-thio-dG, checkpoint inhibitors and radiation therapy” (The Board of Regents of the University of Texas System, priority 2020, dated 2024).

Assays:
cancer cells = details: depending on cell type, even including therapy resistant cancers; read-out: observed IC50 values; cited from earlier work
A375 tumor cells = assay: A375 tumor model in NSG-SGM3 and humanized NSG-SGM3 mice; type: in vivo, mouse
Protocol: FIGS. 13A-F (related to FIGS. 6A-E). (FIGS. 13A-C) 12 weeks after humanized mouse reconstitution, human CD45+ cells and CD3+ T cells in mouse peripheral blood were tested by flow cytometry. (FIG. 13D) Cell viability (IC50) of 6-thio-dG in A375 human melanoma cancer cells. Cells were treated with 6-thio-dG for 4 days. (FIG. 13E) NSG-SGM3 mice (n=5) were inoculated with 2×10^6 A375 tumor cells and treated with 6-thio-dG (3 mg/kg, day 7 and day 8) or anti-PD-L1 plus anti-CTLA-4 (200 μg i.p., day 10 and day 13) or the combination of 6-thio-dG plus anti-PD-L1 and anti-CTLA-4. Tumor growth was measured every 3 days. (FIG. 13F) Humanized NSG-SGM3 mice (n=5-7) were inoculated with 2×10^6 A375 tumor cells and treated with 6-thio-dG (3 mg/kg, day 13 and day 14) or anti-PD-L1 plus anti-CTLA-4 (200 μg i.p., day 16 and day 19) or the combination of 6-thio-dG plus anti-PD-L1 and anti-CTLA-4. Tumor growth was measured every 3 days. Data were shown as mean±SEM. P value was determined by two-tailed unpaired t test (FIGS. 13B and 13C, n.s. p>0.05) or two-way ANOVA (FIG. 13F).
Humanized mouse tumor models. Humanized mouse reconstitution was previously described (Qiao et al., 2019). Briefly, four-week-old NSG-SGM3 female mice were irradiated with 100 cGy (X-ray irradiation with X-RAD 320 irradiator) one day prior to human CD34+ cells transfer. […] Tumor volumes were measured twice a week. […]

tumor cells = assay: Autophagy in tumor cells (data not shown); type: cell-based; details: after 6-thio-dG treatment
MC38 cells = assay: Colony formation assay; type: cell-based, mouse; details: 0.5 μM 6-thio-dG every three days for 13 days
Protocol: Colony formation assay. MC38 cells were seeded in three different concentrations on six well plates (1000-4000 cells/well) and treated with various drug concentrations every 3-4 days. Following 13 days treatment, cells were fixed and stained with 6% glutaraldehyde (Fisher Scientific) plus 0.5% crystal violet (Sigma) solution. After washing with tap water, cells were air-dried and images captured using a G-BOX (Syngene, model: G-BOX F3).

HCT116 tumor cells = assay: HCT116 tumor model in NSG-SGM3 and humanized NSG-SGM3 mice; type: in vivo, mouse; details: three doses, 3 mg/kg
Source text: Humanized mouse tumor models. Humanized mouse reconstitution was previously described (Qiao et al., 2019). Briefly, four-week-old NSG-SGM3 female mice were irradiated with 100 cGy (X-ray irradiation with X-RAD 320 irradiator) one day prior to human CD34+ cells transfer. Cord blood was obtained from UT Southwestern Parkland Hospital. Human CD34+ cells were purified from cord blood by density gradient centrifugation (Ficoll® Paque Plus, GE healthcare) followed by positive immunomagnetic selection with anti-human CD34 microbeads (Stemcell). 1×10^5 CD34+ cells were intravenously injected into each recipient mouse. 12 weeks after engraftment, humanized mice with over 50% human CD45+ cells reconstitution and age and sex matched non-humanized mice were inoculated with 1×10^6 HCT116 tumor cells subcutaneously on the right flank. 3 mg/kg 6-thio-dG was intraperitoneally given on days 7, 8 and 9. Tumor volumes were measured twice a week. Experiments were performed in compliance with UTSW Human Investigation Committee protocol and UTSW Institutional Animal Care and Use Committee.

[1] = tested on: bone marrow derived DCs (BMDCs); assay: In vitro co-culture of BMDC with 6-thio-dG pretreated tumor cells and T cells; type: cell-based, mouse
Protocol: In vitro co-culture of bone marrow dendritic cells (BMDC) and T cells. Single-cell suspensions of bone marrow (BM) cells were collected from tibias and femurs of C57BL/6 mice. The BM cells were placed in 10 cm dish and cultured with complete RPMI 1640 medium containing 20 ng/mL recombinant mouse GM-CSF (BioLegend). Fresh medium with was added into the culture on day 3 and day 6. The BMDCs were harvested Day 7. CD8+ T cells were isolated from lymph nodes and spleens of OT-1 transgenic mice with a negative CD8+ T cell isolation kit (Stemcell). MC38-OVA cells pretreated with 200 nM 6-thio-dG for 4 hrs. Then the drug was washed out, tumor cells were continued to culture for 72 hrs and were harvested on the same day as BMDC harvest. Then MC38-OVA cells were co-cultured with BMDC for overnight. Supernatant was collected for IFN-β ELISA test (PBL). BMDCs were sorted with CD11c+ positive selection kit (Stemcell) and co-cultured with OT-1 CD8+ T cells for 48 hrs. Supernatants were collected and IFN-γ was measured by cytometric bead array assay (BD Biosciences).
Quantitative real-time PCR. Real-time PCR was performed with SsoAdvanced™ Universal SYBR® Green Supermix (Bio-Rad) according to the manufacturer's instructions with different primer sets (human MT-CO1, forward primer 5′-[…]-3′ (SEQ ID NO: 3), reverse primer 5′-CGGGGCATTCCG GATAGGCC-3′ (SEQ ID NO: 4); human18s rRNA, forward primer 5′-[…]-3′ (SEQ ID NO: 5), reverse primer 5′-[…]-3′ (SEQ ID NO: 6); mouse IFN-β, forward primer 5′-ATGAGTGGTGGTTGCAGGC-3′ (SEQ ID NO: 7), reverse primer 5′-[…]-3′ (SEQ ID NO: 8); mouse GAPDH, forward primer 5′-CATCAAGAA GGTGGTGAAGC-3′ (SEQ ID NO: 9), reverse primer 5′-[…]-3′) (SEQ ID NO: 10) mouse GAPDH was used as the internal control. 2^−ΔΔCt method was used to calculate relative expression changes.

[2] = tested on: mouse BMDC co-cultured with HCT116; assay: Cytosolic DNA extraction and qPCR in DCs co-cultured with HCT116; type: cell-based; details: HCT116 pretreated with 500 nM 6-thio-dG; co-culture 4 hrs
Protocol: Cytosolic DNA extraction and quantitative real-time PCR. HCT 116 cells were pretreated with 500 nM 6-thio-dG for 4 hrs. Then drug was washed out, tumor cells were continued to culture for 72 hrs and harvest on the same day as BMDC harvest. Then HCT116 cells were mixed 1:1 with 1×10^6 BMDC for 4 hrs. BMDC was purified and divided into two equal aliquots.
One aliquot was extracted for total genomic DNA with Purelink Genomic DNA kit (Invitrogen) and served as normalization control. The other aliquot was resuspended in 100 μL cytosolic extract buffer containing 150 mM NaCl, 50 mM HEPES and […] digitonin (Sigma) and incubated for 10 mins at RT for plasma membrane permeabilization (West et al., 2015). Then cells were centrifuged to pellet intact cells. The cytosolic supernatants were collected and centrifuged at 12000 g for 10 mins to pellet the remaining cellular debris. Then cytosolic DNA was extracted with Purelink Genomic DNA kit (Invitrogen). Quantitative PCR was performed on both whole-cell extracts and cytosolic fractions using human DNA primers and mouse DNA primers (Xu et al., 2017).
Quantitative real-time PCR. […]

SMILES: Nc1nc2c(ncn2[C@H]2C[C@H](O)[C@@H](CO)O2)c(=S)[nH]1 [6-thio-dG, 6-thio-2′-deoxyguanosine]
- IC50 (cancer cells): 700 to 2900 nM
- tumor growth / tumor burden (A375 tumor cells; humanized NSG-SGM3 mice, 6-thio-dG 3 mg/kg day 13 and 14, anti-PD-L1 plus anti-CTLA-4 200 μg i.p. day 16 and 19): partially delayed tumor growth
- tumor growth (A375 tumor cells; immunocompromised NSG-SGM3 mice, 3 mg/kg, day 7 and day 8): did not observe any effect
- activation of autophagy in tumor cells (tumor cells): did not see activation of autophagy
- cells forming colonies (MC38 cells): less than 50%
- tumor growth (HCT116 tumor cells; humanized NSG-SGM3 mice): significantly delayed tumor growth
- tumor growth (HCT116 tumor cells; immunocompromised NSG-SGM3 mice): did not have significant difference
- IFN-γ production by OT-1 CD8+ T cells (cross-priming capacity of DCs) ([1]; MC38-OVA pretreated with 200 nM 6-thio-dG, DC/T cell co-culture 48 hrs, CBA): significant increase
- IFN-β in DCs, WT vs Tmem173KO ([1]; MC38 pretreated with 200 nM 6-thio-dG, qPCR): induced IFN-β production in DCs in a STING-dependent manner
- IFN-β production by DCs ([1]; co-culture with tumor cells pretreated with 200 nM 6-thio-dG, ELISA): significantly increased
- human DNAs (MT-CO1 and human 18S) in the cytosol of mouse DCs [2]: increase
